Data: patent US7282508B2, “Substituted 4-phenyl-4-(1H-imidazol-2-yl)-piperidine derivatives and their use as selective non-peptide delta opioid agonists” (Janssen Pharmaceutica N.V., priority 2001, dated 2007)

SMILES | melting point
O=C(c1ccccc1)N1CCC(c2ccccc2)(c2nccn2Cc2ccccc2)CC1 [Compound 2] | 122.7 °C
CCOC(=O)N1CCC(c2ccccc2)(c2nccn2Cc2ccc(C(=O)OC)cc2)CC1 [Compound 3] | 149.1 °C
CCN/C(=N/C#N)N1CCC(c2ccccc2)(c2nccn2Cc2ccccc2)CC1 [Compound 4] | 84.2 °C
CCOC(=O)N1CCC(c2ccccc2)(c2nccn2Cc2ccc(C(=O)O)cc2)CC1 [Compound 8] | 251.6 °C
